Read-outs that look alike come from different tables or passages of the source.
What was measured:
[1] = tested on: Phosphorylation of ERK1/2 in AsPC-1 cells; test: Phospho-ERK1/2 MSD Assay; format: cell-based
Protocol: Sixteen hours prior to compound treatment, AsPC-1 cells were seeded in 96-well cell culture plates at a density of 25,000 cells/well and incubated at 37° C., 5% CO2. A compound dose-response titration was diluted in growth media, added to appropriate wells of a cell culture plate, and then incubated at 37° C., 5% CO2 for 2 hours.

[2] = target: T1, His-tagged KRAS G12D protein (Homo sapiens, UniProt P01116, G12D)
[3] = target: T1, His-tagged KRAS G12D protein; test: biochemical
[4] = Homo sapiens, ASPC1, 2 h, read-out: 2 h p-ERK (AsPC-1 cells), IC50, AsPC-1 cells, 2 h compound treatment

T1 sequence (P01116 1-188 isoform P01116-2 G12D): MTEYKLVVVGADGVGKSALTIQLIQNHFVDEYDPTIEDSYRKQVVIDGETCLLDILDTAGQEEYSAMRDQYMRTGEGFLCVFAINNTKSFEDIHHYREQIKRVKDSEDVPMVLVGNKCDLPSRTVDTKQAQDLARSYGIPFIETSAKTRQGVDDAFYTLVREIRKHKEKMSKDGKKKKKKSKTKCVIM

IC50 ([1]; read-out: 2 h p-ERK (AsPC-1 cells), IC50, AsPC-1 cells, 2 h compound treatment)	IC50 [2]	IC50 [1, 4]	IC50 [3]	Structure (SMILES)
259 nM	3 nM	–	–	CCc1c(F)ccc2cc(O)cc(-c3ncc4c(N5CCCC(C#N)CC5)nc(OC[C@@]56CCCN5C[C@H](F)C6)nc4c3F)c12 (single isomer, unassigned) [Example 55]
–	–	10 nM	8 nM	C=CCC1CCCc2cc(O)cc(-c3ncc4c(N5CCC[C@@](C)(O)C5)nc(OC[C@@]56CCCN5C[C@H](F)C6)nc4c3F)c21 (stereo partly drawn) [Example 175, (3R)-1-(7-(8-Allyl-3-hydroxy-5,6,7,8-tetrahydro-naphthalen-1-yl)-8-fluoro-2-(((2R,7aS)-2-fluorotetrahydro-1H-pyrrolizin-7a(5H)-yl)methoxy)pyrido[4,3-d]pyrimidin-4-yl)-3-methyl-piperidin-3-ol]
–	–	18 nM	5 nM	CCc1c(F)ccc2cc(O)cc(-c3ncc4c(N5CCC[C@@](C)(O)C5)nc(OCC56CCCN5CCC6)nc4c3F)c12 [Example 179, (R)-1-(7-(8-Ethyl-7-fluoro-3-hydroxynaphthalen-1-yl)-8-fluoro-2-((tetrahydro-1H-pyrrolizin-7a(5H)-yl)methoxy)pyrido[4,3-d]pyrimidin-4-yl)-3-methylpiperidin-3-ol]

— US20250034167A1, “HETEROCYCLIC COMPOUNDS AND METHODS OF USE” (AMGEN INC., priority 2021, published 2025)
